Values quoted from earlier work as cited in patent US20240197646A1, “DRUG DELIVERY SYSTEM AND METHODS OF USING THE SAME” (Axogen Corporation, priority 2022, published 2024).

Conditions: stated reference level, no source or test given

Q: Which toxic dose does the source give for `C=CC[C@@H]1/C=C(\C)C[C@H](C)C[C@H](OC)[C@H]2O[C@@](O)(C(=O)C(=O)N3CCCC[C@H]3C(=O)O[C@H](/C(C)=C/[C@@H]3CC[C@@H](O)[C@H](OC)C3)[C@H](C)[C@@H](O)CC1=O)[C@H](C)C[C@@H]2OC` [FK506] here?
A: The toxic dose was “about 5 mg/ml”.
